This note sets out measurements from PubChem BioAssay (NCI).

Holding throughout (experiment): NCI tumour cell line growth inhibition, 48 h
Assay [1] relates to UACC-62 melanoma.
For assay [2], the system named is UO-31 renal.
In assay [3] the test system is RXF 393 renal.
For assay [4], the system named is HCT-15 colon.
Assay [5] relates to OVCAR-4 ovarian.
The subject of assay [6] is NCI-H522 lung.
Assay [7] has as its system KM12 colon.
The test system of assay [8] is TK-10 renal.
Assay [9] relates to OVCAR-5 ovarian.
The test system of assay [10] is LOX IMVI melanoma.

“And” between values parts separate entries of the source, which are not always exact repeats. Identical values can stand only once.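 Tested at 5 concentrations; 48 h exposure; 96-well plates; endpoints linearly interpolated, else capped at highest concentration. GI50 marks 50% less growth. TGI: concentration producing complete growth inhibition.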

Regarding `CCN1CCCCC(=N\O)/C(=N/O)CCCC1`, the TGI in assay [1], in assay [2], in assay [3], in assay [4], in [5] and in assay [6] was greater than 100 µM each time. The TGI in assay [7], in assay [8], in [9] and in [10] was greater than 100 µM throughout.
As to `COc1ccc2c(c1)C(=O)c1c-2n(CCCCl)c(=O)c2cc(N(C)C)ccc12`, the GI50 in [1] was 41 µM; in assay [2], greater than 100 µM; in assay [3], 25.5 µM; in assay [4], greater than 100 µM; in assay [5], 62.9 µM; in [6], 18.9 µM. The GI50 in [7] is 3.56 µM; in [8] it was 30.9 µM; in assay [9], greater than 100 µM; in [10], 99.1 µM. For the same compound, the TGI was greater than 100 µM in [1]; greater than 100 µM in assay [2]; 90.7 µM in [3]; greater than 100 µM in assay [4]; greater than 100 µM in assay [5]; greater than 100 µM in assay [6]. For the same compound, the TGI in assay [7], in assay [8], in [9] and in assay [10] was greater than 100 µM in each case.
For `O=C(O/N=C1/CCCC/C1=C\c1ccccc1)c1ccc(Cl)cc1`, the TGI in assay [1], in assay [2], in assay [3], in [4], in assay [5] and in assay [6] was greater than 100 µM throughout. For the same compound, the TGI in assay [7], in assay [8], in assay [9] and in assay [10] was greater than 100 µM throughout.
Regarding `CC12CCC(O)CC1CCC1C2CCC2(C)C(C3=CC(=O)OC3)CCC12` (stereo unspecified), the GI50 in [1] was 0.522 µM; in assay [2], greater than 100 µM; in [3], 7.76 µM; in assay [4], greater than 100 µM; in assay [6], 0.686 µM; in assay [7], greater than 100 µM. Moreover, the GI50 in assay [8] is 19.6 µM; in assay [9] it was greater than 100 µM; in assay [10] it was 0.3 µM. The TGI is greater than 100 µM in assay [2]; 42.5 µM in assay [3]; greater than 100 µM in assay [4]; greater than 73.2 µM in assay [5]; 4.44 µM in [6]; greater than 100 µM in assay [7]. Also, the TGI in [8] was 66.4 µM; in assay [9], greater than 100 µM; in assay [10] it was greater than 100 µM.
As for `Cc1[nH]nc(C(=O)Nc2n[nH]c3ccccc23)c1[N+](=O)[O-]`, the GI50 was greater than 93.7 µM in [1]; greater than 100 µM in assay [2]; greater than 100 µM in [3]; 33.4 µM in assay [4]; greater than 100 µM in assay [5]; 39.4 µM in assay [6]. The GI50 in assay [7], in [8], in assay [9] and in assay [10] was greater than 100 µM each time. Moreover, the TGI in assay [1], in [2], in assay [3], in assay [4], in [5] and in assay [6] was greater than 100 µM each time. Further, the TGI in [7], in assay [8], in [9] and in assay [10] was greater than 100 µM in each case.
As for `CC(C)c1ccc(O)c(=O)cc1`, the TGI was 21.8 µM in assay [1]; 35.7 µM and 71.7 µM in [2]; greater than 86.2 µM in assay [3]; greater than 100 µM in assay [4]; greater than 100 µM in assay [5]; 24.5 µM and 24.4 µM in assay [6]. Further, the TGI in [7] is greater than 100 µM; in assay [8] it was greater than 100 µM; in assay [9], 64.8 µM and > 100 µM; in assay [10], 40.7 µM and 72.8 µM. The GI50 in assay [2] was 6.31 µM; in assay [4], 4.95 µM; in [5] it was 4.56 µM; in assay [6], 3.4 µM; in assay [7], 5.28 µM; in [8], 39.7 µM. For the same compound, the GI50 in assay [9] is 6.84 µM; in [10], 3.54 µM.
As for `COc1cccc2c1C(=O)c1c(O)c3c(c(O)c1C2=O)C[C@@](O)(/C(C)=N\O)C[C@@H]3OC1CC(N)C(O)C(C)O1` (stereo partly specified), the TGI in assay [1] is 2.94 µM; in assay [2], 49.2 µM; in assay [3], 4.76 µM; in [4] it was greater than 100 µM; in [5] it was 17.3 µM; in assay [6] it was 1.73 µM. Besides, the TGI in assay [7] is 15.8 µM; in [8] it was 37.2 µM; in [9], 12.2 µM; in [10], 6.06 µM.
`CCC(C)CC(CC)NCCN1CCN(C(CC)CC(C)CC)C1=S` (stereo unspecified): the GI50 in assay [1] is 1.65 µM; in [2], 2.39 µM; in assay [3], 1.5 µM; in assay [4] it was 1.79 µM; in assay [5], 1.59 µM; in assay [6], 1.74 µM. In addition, the GI50 in [7] was 1.71 µM; in [8], 3.16 µM; in assay [9] it was 1.72 µM; in [10] it was 1.57 µM. The TGI in assay [1] was 3.05 µM; in assay [2], 8.68 µM; in assay [3], 2.82 µM; in assay [4] it was 3.4 µM; in [5] it was 3.91 µM; in assay [6] it was 3.24 µM. In addition, the TGI turned out to be 3.22 µM in assay [7], 11 µM in assay [8], 3.32 µM in [9] and 2.91 µM in assay [10].
With `O=C1C=C(Nc2nc(C(=O)O)cc(=O)[nH]2)c2ccccc2C1=O`, the TGI in assay [1], in [2], in assay [3], in assay [4], in assay [5] and in [6] was greater than 100 µM in each case. In addition, the TGI in assay [7], in assay [8], in [9] and in assay [10] was greater than 100 µM throughout.
